# What was measured:
# Type in all cases: in vivo
# [1] = system: green peach aphid (Myzus persicae); assay: Myzus persicae - spray test; settings: mortality, infested Chinese cabbage leaf disks sprayed; for Efficacy in % after 6 d: 0.4 g ai/ha
# Experimental: (§1) Formula for the efficacy of the combination of two compounds • The expected efficacy of a given combination of two compounds is calculated as follows (see Colby, S. R., “Calculating Synergistic and antagonistic Responses of Herbicide Combinations”, Weeds 15, pp. 20-22, 1967): • If • X is the efficacy expressed in % mortality of the untreated control for test compound A at a concentration of m ppm respectively m g/ha, • Y is the efficacy expressed in % mortality of the untreated control for test compound B at a concentration of n ppm respectively n g/ha, • E is the efficacy expressed in % mortality of the untreated control using the mixture of A and B at m and n ppm respectively m and n g/ha, • then is
# (§2) [formula] • If the observed insecticidal efficacy of the combination is higher than the one calculated as, “E”, then the combination of the two compounds is more than additive, i.e., there is a synergistic effect.
# Myzus persicae—Spray Test
# (§3) Solvent: 78.0 parts by weight acetone • 1.5 parts by weight dimethylformamide
# (§4) Emulsifier: alkylaryl polyglycol ether
# (§5) To produce a suitable preparation of active compound, 1 part by weight of active compound is mixed with the stated amount of solvents and is diluted with water, containing an emulsifier concentration of 1000 ppm, to the desired concentration. To produce a suitable preparation of a spore suspension the spores are diluted with emulsifier containing water to the desired concentration. Further test concentrations are prepared by dilution with emulsifier containing water.
# Chinese cabbage (Brassica pekinensis) leaf-disks infected with all instars of the green peach aphid (Myzus persicae) are sprayed with a preparation of the active ingredient of the desired concentration.
# After the specified period of time, mortality in % is determined. 100% means all aphids have been killed; 0% means none of the aphids have been killed. The mortality values determined thus are recalculated using the Colby-formula (see sheet 1).
# [2] = system: mustard beetle larvae (Phaedon cochleariae); assay: Phaedon cochleariae - spray test; settings: mortality, Chinese cabbage leaf disks sprayed
# Experimental: as §1, §2
# Phaedon cochleariae—Spray Test
# Solvent: 78.0 parts by weight of acetone • • 1.5 parts by weight of dimethylformamide
# Emulsifier: alkylaryl polyglycol ether […]
# After the specified period of time, mortality in % is determined. […] The mortality values determined thus are recalculated using the Colby-formula (see sheet 1).
# [3] = system: two spotted spidermite (Tetranychus urticae); assay: Tetranychus urticae - spray test, OP-resistant; settings: mortality, infested French beans sprayed
# Experimental: as §1, §2
# Tetranychus urticae—Spray Test, OP-Resistant
# as §3, §4, §5
# French beans (Phaseolus vulgaris) which are heavily infested with all stages of the two spotted spidermite (Tetranychus urticae), are sprayed with a preparation of the active ingredient of the desired concentration.
# After the specified period of time, mortality in % is determined. 100% means all spider mites have been killed and 0% means none of the spider mites have been killed. The mortality values determined thus are recalculated using the Colby-formula (see sheet 1).
compound,measurement,setting,value
O=C(NCCc1ncc(C(F)(F)F)cc1Cl)c1ccccc1C(F)(F)F [Fluopyram],Efficacy in % after 1 d,[1]; 1000 g ai/ha,0%
same,Efficacy in % after 6 d,[2]; 100 g ai/ha,0%
O=C1C=C(N(Cc2ccc(Cl)nc2)CC(F)F)CO1 [Flupyradifurone],Efficacy in % after 6 d,[3]; 250 g ai/ha,0%
same,Efficacy in % after 1 d,[1]; 20 g ai/ha,0%
CNC(=O)c1cc(C#N)cc(C)c1NC(=O)c1cc(Cn2nnc(C(F)(F)F)n2)nn1-c1ncccc1Cl [BCS-CL73507],Efficacy in % after 6 d,[1],0%
same,Efficacy in % after 6 d,[2]; 0.08 g ai/ha,0%
CCOC(=O)OC1=C(c2cc(C)ccc2C)C(=O)N[C@]12CC[C@@H](OC)CC2 [Spirotetramat],Efficacy in % after 6 d,[1],0%
"Cc1cc(F)c(-n2nc(C(F)(F)F)nc2N)cc1[S+]([O-])CC(F)(F)F (stereo not shown) [AMSI 378, 1-{2-fluoro-4-methyl-5-[(2,2,2-trifluorethyl)sulfinyl]phenyl}-3-(trifluoromethyl)-1H-1,2,4-triazol-5-amine]",Efficacy in % after 2 d,[3]; 4 g ai/ha,30%
same,Efficacy in % after 6 d,[3]; 4 g ai/ha,0%
Cc1cc(C)c(C2=C(OC(=O)CC(C)(C)C)C3(CCCC3)OC2=O)c(C)c1 [Spiromesifen],Efficacy in % after 6 d,[3]; 0.5 g ai/ha,0%

# From US9867377B2, “Composition comprising a biological control agent and an insecticide” (Bayer CropScience AG, priority 2012, dated 2018)
